Columns and labels:
Assay type in all cases: in vivo, human
proteasome genes = assay: Proteasome gene expression changes after short-term exposure (test-dosing) to bortezomib, dexamethasone, thalidomide, melphalan; conditions: test-dosing in myeloma patients
From the text: In earlier studies, pharmacogenomics was used to identify genes altered by short-term exposure of therapy-naïve cases to thalidomide and dexamethasone. Little to no overlap was found in the genes altered by these agents with those altered by bortezomib.

[1] = system: CD138-purified plasma cells; assay: Gene expression profiling of plasma cells prior to and 48 hr after bortezomib test-dose; conditions: for Mean log2 Expression Change / Mean log2 Expression Change, Average: 48 hr after test-dose vs baseline
Procedure: Pharmacogenomic (PG) studies were performed as part of two TT3 trials (2003-33, n=303; 2006-66, n=177), obtaining plasma cells prior to and 48 hr after a bortezomib test-dose (1.0 mg/m2), which was accomplished in 142 patients receiving 2003-33 (training set) and […] receiving 2006-66 (test set). […] A continuous risk score was calculated and an optimal cut-point for event-free survival separation determined. The independent prognostic power of the binary risk score was tested in 2006-66. Multivariate analyses (MV) were employed to determine the role of post-bortezomib risk in relationship to standard prognostic variables and 70-gene baseline risk model.
The details of Total Therapy 3 are known in the art. In brief, protocol 2003-33 enrolled 303 newly diagnosed patients with myeloma into a tandem transplantation program, employing 2 cycles each of induction chemotherapy with VTD-PACE (bortezomib, thalidomide, dexamethasone; 4-day continuous infusions of cisplatin, doxorubicine, cyclophosphamide, etoposide) prior to and after melphalan-based transplantation, followed by VTD maintenance. A pharmaco-genomic aspect of the protocol called for gene expression profiling analyses of CD138-purified plasma cells obtained prior to and 48 hr following a test-dose application of bortezomib (1.0 mg/m2). The observation of prognostic consequences of bortezomib-induced gene expression profiling alterations provided the rationale for accrual of an additional 177 patients to an extension TT3 protocol, 2006-66, in order to validate the pharmaco-genomic data generated in the 2003-33 trial. Gene expression profiling baseline data were available in 275 and 169 patients entered on 2003-33 and 2006-66, respectively, 142 and 128 of whom had paired samples at baseline and 48 hr after test-dosing.
Multiple myeloma plasma cells were purified from bone marrow aspirates prior to and 48 hr following in vivo exposure to 1.0 mg/m2 of bortezomib in 142 of 303 patients enrolled in UARK2003-33 and 128 of 177 accrued to UARK2006-66. RNA was isolated from tumor cells and run on Affymetrix U133Plus2.0 microarrays. Multiple myeloma plasma cells were isolated from heparinized bone marrow (BM) aspirates using CD138-based immunomagnetic bead selection using the Miltenyi AutoMacs device (Miltenyi, Bergisch Gladbach, Germany). Peripheral Blood mononuclear cells were obtained through Ficoll gradient centrifugation. RNA purification, cDNA synthesis, cRNA preparation, and hybridization to the Human Genome U133Plus 2.0 GeneChip microarrays (Affymetrix, Santa Clara, Calif.) were performed.
The Affymetrix U133Plus2.0 microarrays were preprocessed and normalized with MAS5.0 software. […] Each of these 1051 genes was then correlated with event-free survival in a Cox regression model and ranked the genes by p-values. In order to explore the various potential survival implications, two sets of covariates were considered in the Cox model for each gene: a) percent change at 48 hr compared to the baseline expression, and b) 48 hr expression.

proteasome proteins = assay: Mass spectrometry of proteasome proteins after bortezomib; conditions: mass spectroscopy, protein level
From the text: Representative examples of proteasome up-regulation after bortezomib at both the RNA and protein levels are depicted.
For further validation of GEP-derived data, the effects of bortezomib on proteasome proteins was also investigated by mass spectroscopy, (FIG. 8A). Representative examples of proteasome up-regulation after bortezomib at both the RNA and protein levels are depicted in FIG. 8A-8B.

Question: For `CC(C)C[C@H](NC(=O)[C@H](Cc1ccccc1)NC(=O)c1cnccn1)B(O)O` [bortezomib], which “proteasome gene expression change after short-term exposure” value (proteasome genes) is on record?
Answer: hyper-activation of proteasome genes

Question: And the “Mean log2 Expression Change” value ([1]; ACVR1C 1552519_at)?
Answer: −0.17

Question: What about the “Mean log2 Expression Change” value ([1]; ALDOA 238996_x_at) of the same compound?
Answer: 0.36

Question: What about the “Mean log2 Expression Change” value ([1]; ANKRD37 242548_x_at) of the same compound?
Answer: −0.39

Question: And the “Mean log2 Expression Change” value ([1]; BIRC5 210334_x_at)?
Answer: −0.35

Question: What about the “Mean log2 Expression Change” value ([1]; C1orf31 225638_at) of the same compound?
Answer: 0.18

Question: And the “Mean log2 Expression Change” value ([1]; C1orf128 229856_s_at)?
Answer: −0.32

Question: And the “Mean log2 Expression Change” value ([1]; C9orf130 227893_at)?
Answer: 0.16

Question: And the “Mean log2 Expression Change” value ([1]; C14orf100 223215_s_at)?
Answer: 0.12

Question: And the “Mean log2 Expression Change” value ([1]; C17orf60 217513_at)?
Answer: 0.32

Question: And the “Mean log2 Expression Change” value ([1]; CHORDC1 218566_s_at)?
Answer: 0.15

Question: What about the “Mean log2 Expression Change” value ([1]; CISH 221223_x_at) of the same compound?
Answer: −0.20

Question: And the “Mean log2 Expression Change” value ([1]; CISH 223377_x_at)?
Answer: −0.18

Question: What about the “Mean log2 Expression Change” value ([1]; CISH 223961_s_at) of the same compound?
Answer: −0.32

Question: What about the “Mean log2 Expression Change” value ([1]; COMMD8 218351_at) of the same compound?
Answer: 0.16

Question: What about the “Mean log2 Expression Change” value ([1]; COPS5 201652_at) of the same compound?
Answer: 0.12

Question: And the “Mean log2 Expression Change” value ([1]; COX6C 201754_at)?
Answer: 0.12

Question: And the “Mean log2 Expression Change” value ([1]; CRYGS 223643_at)?
Answer: −0.18

Question: And the “Mean log2 Expression Change” value ([1]; ENSA 202596_at)?
Answer: 0.12

Question: And the “Mean log2 Expression Change” value ([1]; FLNA 214752_x_at)?
Answer: 0.18

Question: And the “Mean log2 Expression Change” value ([1]; FOSB 202768_at)?
Answer: −0.54

Question: What about the “Mean log2 Expression Change” value ([1]; FUNDC1 235346_at) of the same compound?
Answer: 0.13

Question: And the “Mean log2 Expression Change” value ([1]; GABARAPL1 208869_s_at)?
Answer: 0.20

Question: And the “Mean log2 Expression Change” value ([1]; HIST1H3B 208576_s_at)?
Answer: 0.40

Question: And the “Mean log2 Expression Change” value ([1]; HNRPC 200014_s_at)?
Answer: 0.11

Question: And the “Mean log2 Expression Change” value ([1]; HNRPC 212626_x_at)?
Answer: 0.16

Question: What about the “Mean log2 Expression Change” value ([1]; K1AA1394 228984_at) of the same compound?
Answer: −0.29

Question: What about the “Mean log2 Expression Change” value ([1]; K1AA1754 225582_at) of the same compound?
Answer: −0.14

Question: What about the “Mean log2 Expression Change” value ([1]; KLHL7 223250_at) of the same compound?
Answer: 0.09

Question: And the “Mean log2 Expression Change” value ([1]; LAP3 217933_s_at)?
Answer: 0.15

Question: What about the “Mean log2 Expression Change” value ([1]; LAPTM4A 200673_at) of the same compound?
Answer: 0.12

Question: And the “Mean log2 Expression Change” value ([1]; LOC400657 226924_at)?
Answer: 0.11

Question: What about the “Mean log2 Expression Change” value ([1]; LOC643318 1557633_at) of the same compound?
Answer: −0.29

Question: And the “Mean log2 Expression Change” value ([1]; LOC644250 230292_at)?
Answer: −0.34

Question: What about the “Mean log2 Expression Change” value ([1]; LZTR2 1564423_a_at) of the same compound?
Answer: −0.23

Question: And the “Mean log2 Expression Change” value ([1]; MGC61598 226499_at)?
Answer: −0.29

Question: And the “Mean log2 Expression Change” value ([1]; MRPL47 223480_s_at)?
Answer: 0.09

Question: And the “Mean log2 Expression Change” value ([1]; NMT1 201157_s_at)?
Answer: 0.12

Question: What about the “Mean log2 Expression Change” value ([1]; NOLA1 219110_at) of the same compound?
Answer: 0.11

Question: What about the “Mean log2 Expression Change” value ([1]; NR4A1 202340_x_at) of the same compound?
Answer: −0.79

Question: What about the “Mean log2 Expression Change” value ([1]; NXT2 209628_at) of the same compound?
Answer: 0.13

Question: What about the “Mean log2 Expression Change” value ([1]; PDE4B 203708_at) of the same compound?
Answer: −0.25

Question: And the “Mean log2 Expression Change” value ([1]; PDE4B 211302_s_at)?
Answer: −0.28

Question: And the “Mean log2 Expression Change” value ([1]; PDE4B 215671_at)?
Answer: −0.42

Question: What about the “Mean log2 Expression Change” value ([1]; PSMA4 203396_at) of the same compound?
Answer: 0.14

Question: What about the “Mean log2 Expression Change” value ([1]; PSMA7 201114_x_at) of the same compound?
Answer: 0.21

Question: What about the “Mean log2 Expression Change” value ([1]; PSMB2 200039_s_at) of the same compound?
Answer: 0.17

Question: And the “Mean log2 Expression Change” value ([1]; PSMB3 201400_at)?
Answer: 0.13

Question: What about the “Mean log2 Expression Change” value ([1]; PSMB4 202243_s_at) of the same compound?
Answer: 0.19

Question: What about the “Mean log2 Expression Change” value ([1]; PSMB4 202244_at) of the same compound?
Answer: 0.15

Question: What about the “Mean log2 Expression Change” value ([1]; PSMB7 200786_at) of the same compound?
Answer: 0.15

Question: What about the “Mean log2 Expression Change” value ([1]; PSMC4 201252_at) of the same compound?
Answer: 0.16

Question: And the “Mean log2 Expression Change” value ([1]; PSMC5 209503_s_at)?
Answer: 0.17

Question: And the “Mean log2 Expression Change” value ([1]; PSMD2 200830_at)?
Answer: 0.13

Question: And the “Mean log2 Expression Change” value ([1]; PSMD4 200882_s_at)?
Answer: 0.19

Question: What about the “Mean log2 Expression Change” value ([1]; PSMD4 210460_s_at) of the same compound?
Answer: 0.19

Question: What about the “Mean log2 Expression Change” value ([1]; PSMD4 211609_x_at) of the same compound?
Answer: 0.20

Question: And the “Mean log2 Expression Change” value ([1]; PSMD14 212296_at)?
Answer: 0.23

Question: What about the “Mean log2 Expression Change” value ([1]; RBM33 238801_at) of the same compound?
Answer: −0.26

Question: And the “Mean log2 Expression Change” value ([1]; RPL41 216215_s_at)?
Answer: −0.16

Question: And the “Mean log2 Expression Change” value ([1]; SLC25A14 204587_at)?
Answer: −0.10

Question: What about the “Mean log2 Expression Change” value ([1]; SNRPD1 202690_s_at) of the same compound?
Answer: 0.11

Question: What about the “Mean log2 Expression Change” value ([1]; STAU2 229417_at) of the same compound?
Answer: 0.22

Question: What about the “Mean log2 Expression Change” value ([1]; STAU2 233909_at) of the same compound?
Answer: −0.40

Question: And the “Mean log2 Expression Change” value ([1]; STX11 235670_at)?
Answer: −0.14

Question: What about the “Mean log2 Expression Change” value ([1]; SUMO1 211069_s_at) of the same compound?
Answer: 0.10

Question: And the “Mean log2 Expression Change” value ([1]; TAGAP 1552542_s_at)?
Answer: −0.19

Question: What about the “Mean log2 Expression Change” value ([1]; TBC1D9 212960_at) of the same compound?
Answer: −0.19

Question: What about the “Mean log2 Expression Change” value ([1]; TMC8 236554_x_at) of the same compound?
Answer: 0.24

Question: What about the “Mean log2 Expression Change” value ([1]; TUBA6 209251_x_at) of the same compound?
Answer: 0.12

Question: What about the “Mean log2 Expression Change” value ([1]; UBPH 205687_at) of the same compound?
Answer: 0.16

Question: What about the “Mean log2 Expression Change” value ([1]; WIRE 212050_at) of the same compound?
Answer: −0.10

Question: And the “Mean log2 Expression Change” value ([1]; ZNF710 213658_at)?
Answer: −0.12

Question: And the “Mean log2 Expression Change, Average” value ([1]; average of the Bad Genes)?
Answer: 0.13

Question: And the “Mean log2 Expression Change, Average” value ([1]; average of the Good Genes)?
Answer: −0.16

Question: And the “average expression decrease of the good genes from baseline to post-bortezomib” value ([1]; high-risk group)?
Answer: 1.22 fold

Question: And the “average expression increase of the bad genes from baseline to post-bortezomib” value ([1]; high-risk group)?
Answer: 1.21 fold

Question: What about the “average expression decrease of the good genes from baseline to post-bortezomib” value ([1]; low-risk group) of the same compound?
Answer: 1.09 fold

Question: And the “average expression increase of the bad genes from baseline to post-bortezomib” value ([1]; low-risk group)?
Answer: 1.07 fold

Question: And the “Mean log2 Expression Change” value ([1]; probeset 226399_at (no gene symbol))?
Answer: 0.09

Question: And the “Mean log2 Expression Change” value ([1]; probeset 227524_at (no gene symbol))?
Answer: −0.17

Question: And the “Mean log2 Expression Change” value ([1]; probeset 229388_at (no gene symbol))?
Answer: 0.22

Question: And the “Mean log2 Expression Change” value ([1]; probeset 236986_at (no gene symbol))?
Answer: −0.13

Question: What about the “Mean log2 Expression Change” value ([1]; probeset 239082_at (no gene symbol)) of the same compound?
Answer: −0.11

Question: What about the “Mean log2 Expression Change” value ([1]; probeset 239343_at (chr12q23.3, no gene symbol)) of the same compound?
Answer: 0.19

Question: And the “Mean log2 Expression Change” value ([1]; probeset 1561060_at (no gene symbol))?
Answer: −0.27

Question: What about the “proteasome proteins after bortezomib” value (proteasome proteins) of the same compound?
Answer: up-regulation
